Experimental findings from patent US3954778A, “Aminoacetyl derivatives of 2,3-diphenyl cyclopropyl amine” (priority 1970, dated 1976) are described below.

Where a name gives a salt, the structure may show the parent alone. Read-outs that look alike come from different tables or passages of the source.

Data set [1] relates to male albine Swiss mice. Nature of the data set: Electroshock (M.E.S.). The format is in vivo. To be noted: for ED50: Mus musculus. As for the experimental part: (§1) Materials and methods. The animals used to perform the pharmacological tests with the compounds of the invention have been, unless the contrary is explicitly indicated, male albine Swiss mice weighing 19-23 g; each animal has been used only once.
(§2) The compounds have been administered as hydrochlorides, under skin (0.1 ml/10 g) 30 minutes ante; for determining the LD50, the compounds have been administered by intraperitoneal route and were considered deaths occured in the 72 hours following the treatment.
(§3) As reference compounds there was used: ethosuximide injected under skin 30 minutes ante (before); Phenurone per os 60 minutes ante; phenobarbital sodium salt under skin 30 minutes ante, trimethadione under skin 30 minutes ante; primidone per os 6 hours ante and Mephenesin under skin 30 minutes ante.
Electroshock (M.E.S.) -- The method adopted in making the electroshock is Cashin C.
(§4) The so-obtained data have been elaborated by calculating the ED50 and the LD50 according to Lichtfield-Wilcoxon's method (J. Pharmacol. 1949, 96, 99).

Data set [2] has as its system male albine Swiss mice. Nature of the data set: Shock by cardiazol (M.M.S.). The settings on record: for ED50: Mus musculus. The class given is in vivo. As for the experimental part: as §1, §2, §3
Under such conditions the results obtained with the reference compounds are in good agreement with those reported in the art for the same compounds (E. A. Swinyard, W. C. Brown, L. S. Goodman --J. Pharmacol., 1952, 106, 3 19). Shock by cardiazol (M.M.S.) -- 38 mg/kg of cardiazol, in the form of a 0.38% aqueous solution, is quickly injected in the dorsal vein of the mouse's tail (L. S. Goodman, M. Singh Grewal, W. C. Brown, E. A. Swinyard -- J. Pharmacol. 1953, 108, 168). The animals are considered as protected when the extensor phase of the hind paws is eliminated during the tonic crisis.
as §4

The test system of another data set is rat. Nature of the data set: Inhibition of calcium chloride induced cardiac arrhythmias in rats. The class given is in vivo. The settings on record: for minimal effective dose: read-out: active dose (complete inhibition of cardiac arrhythmias). As for the experimental part: The new compounds of the invention are deprived of MAO-inhibiting activity in live rats, both on the mithocondres of hepatic tissue and on the mithocondres of homogenatous of cerebral tissue, even if administered in doses of 100-200 mg/kg per os. […] In particular the activity in cardiac arrhythmias of N-pyrrolidinoacetyl-2,3-cis, trans-diphenylcyclopropylamine has been studied by experimentally inducing arrhythmias in rats by means of calcium chloride, and in dogs by means of adrenaline.
The experiments in rats have been performed as follows:
There was determined the inhibiting effect of N-pyrrolidine acetyl-2,3-cis,trans-diphenylcyclopropylamine hydrochloride on the cardiac arrhythmias arising within the 5 minutes following the calcium chloride administration in comparison with quinidine, procaine and propranolol.

A further data set is described as follows: Acute toxicity LD50. The settings on record: mouse, in vivo, ip. The method, then:
as §1, §2, §4

The test system of a further data set is dog. Nature of the data set: Protection from adrenaline induced cardiac arrhythmias in dogs. The format is in vivo. The settings on record: 1 mg/kg intravenous. As for the experimental part:
The new compounds of the invention are deprived of MAO-inhibiting activity in live rats, both on the mithocondres of hepatic tissue and on the mithocondres of homogenatous of cerebral tissue, even if administered in doses of 100-200 mg/kg per os. As found also with other anticonvulsive drugs, the new compounds of the present invention are endowed with a good antiarrhythmic activity. In particular the activity in cardiac arrhythmias of N-pyrrolidinoacetyl-2,3-cis, trans-diphenylcyclopropylamine has been studied by experimentally inducing arrhythmias in rats by means of calcium chloride, and in dogs by means of adrenaline.
The experiments with dogs have been performed as follows:
The dog has been anesthetized with chloralose and then administered by intravenous injection with 30 γ/kg of adrenaline. The results were evaluated according to Somani and Lum B. K. B. (J. Pharmacol. Expt. Therap. 1965, 147, 194-202).

Where [3] appears, read: sc, 0.5 h, read-out: M.M.S. ED50.
Setting [4] is: sc, 0.5 h, reference compounds (Table 1), under skin 30 minutes ante, cardiazol 38 mg/kg i.v., read-out: M.M.S. ED50.
[5] abbreviates: sc, 0.5 h, new compounds (Table 2), as hydrochlorides, under skin 30 minutes ante, read-out: ED50 M.E.S.
Where [6] appears, read: sc, 0.5 h, new compounds (Table 2), as hydrochlorides, under skin 30 minutes ante, cardiazol 38 mg/kg i.v., read-out: ED50 M.M.S.

On to `CCC1(c2ccccc2)C(=O)NC(=O)NC1=O` [Phenobarbital sodium salt, reference compound], for which the ED50 (usually the dose at which the effect has come halfway, by size or by number of responders) with male albine Swiss mice [1] (sc, 0.5 h, read-out: M.E.S. ED50) was 35 mg/kg; with male albine Swiss mice [2] (setting [3]), 4.5 mg/kg.

In the case of `CCC1(C)CC(=O)NC1=O` (stereo not drawn) [Ethosuximide, reference compound], the ED50 in the data set with male albine Swiss mice [2] (setting [4]) was 50 mg/kg.

With `CC(C)NCC(O)COc1cccc2ccccc12` (stereo not drawn) [propranolol], the minimal effective dose in the data set with rat (Rattus norvegicus) amounted to 1 mg/kg.

On to `CC(C)N(CC(=O)NC1[C@H](c2ccccc2)[C@H]1c1ccccc1)C(C)C` (relative stereo) [N-diisopropylaminoacetyl-2,3-cis,trans-diphenylcyclopropylamine], for which the results for the 50% effective dose (ED50) with male albine Swiss mice [1] (setting [5]) and with male albine Swiss mice [2] (setting [6]) were 135 mg/kg and 87 mg/kg, respectively.

As for `CNCC(=O)NC1[C@H](c2ccccc2)[C@H]1c1ccccc1` (relative stereo) [cis-trans, R1 = H, R2 = CH3, N-methylaminoacetyl-2,3-cis,trans-diphenyl-cylcopropylamine hydrochloride], the median lethal dose (LD50) – broadly, the dose at which mortality reaches 50% – at 72 h in the data set “Acute toxicity LD50” stood at 112 mg/kg. The 50% effective dose (ED50) in the data set on male albine Swiss mice [1] (setting [5]) was found to be 25.5 mg/kg; in the data set on male albine Swiss mice [2] (setting [6]) it was 30 mg/kg.

As to `CCCCN(CCCC)CC(=O)NC1[C@H](c2ccccc2)[C@H]1c1ccccc1` (relative stereo) [cis-trans, R1 = n-C4 H9, R2 = n-C4 H9, N-di-n-butylaminoacetyl-2,3-cis,trans-diphenylcyclopropylamine], the 50% effective dose (ED50) in the data set on male albine Swiss mice [1] (setting [5]) and with male albine Swiss mice [2] (setting [6]) was greater than 250 mg/kg throughout.

Turning to `O=C(CN1CCCCC1)NC1[C@H](c2ccccc2)[C@H]1c1ccccc1` (relative stereo) [cis-trans, N-piperidinoacetyl-2,3-cis,trans-diphenylcyclopropylamine hydrochloride], the 50% lethal dose (LD50) at 72 h in the data set “Acute toxicity LD50” stood at 88 mg/kg. Besides, the ED50 in the data set on male albine Swiss mice [1] (setting [5]) is 14.5 mg/kg; with male albine Swiss mice [2] (setting [6]) it was 6 mg/kg.

`C=C[C@H]1C[N@@]2CC[C@H]1C[C@@H]2[C@@H](O)c1ccnc2ccc(OC)cc12` [quinidine]: the minimal effective dose in the data set on rat (Rattus norvegicus) was 2.5 mg/kg.

In the case of `CCC1(c2ccccc2)C(=O)NCNC1=O` [Primidone, reference compound], the ED50 with male albine Swiss mice [2] (po, Primidone (Table 1), per os 6 hours ante, cardiazol 38 mg/kg i.v., read-out: M.M.S. ED50) worked out at 5.2 mg/kg.

Compound `CCN(CC)CC(=O)NC1[C@H](c2ccccc2)[C@H]1c1ccccc1` (relative stereo) [cis-trans, R1 = C2 H5, R2 = C2 H5, N-dietylaminoacetyl-2,3-cis-trans-diphenylcyclopropylamine] had a median lethal dose (LD50) at 72 h in “Acute toxicity LD50” of 92.5 mg/kg. Also, the values for the ED50 in the data set on male albine Swiss mice [1] (setting [5]) and in the data set with male albine Swiss mice [2] (setting [6]) were 14.2 mg/kg and 12.5 mg/kg, respectively.

With `CN(C)CC(=O)NC1[C@H](c2ccccc2)[C@H]1c1ccccc1` (relative stereo) [cis-trans, R1 = CH3, R2 = CH3, N-dimethylaminoacetyl-2,3-cis,trans-diphenylcyclopropylamine], the 50% effective dose (ED50) in the data set on male albine Swiss mice [1] (setting [5]) worked out at 16.5 mg/kg; in the data set on male albine Swiss mice [2] (setting [6]) it was 16 mg/kg.

Take `O=C(CN1CCCC1)NC1[C@H](c2ccccc2)[C@H]1c1ccccc1` (relative stereo) [N-pyrrolidinoacetyl-2,3-cis,trans-diphenylcyclopropylamine hydrochloride]: the minimal effective dose in the data set on rat (calcium chloride 80 mg/kg i.v., anesthetized rat, drug 90 seconds before calcium chloride) came out at 2 mg/kg. In the data set on rat (rat, calcium chloride arrhythmia, dose 2 mg/kg), the duration of activity result is “about 20 minutes”. Moreover, the “protection from adrenaline arrhythmia” value in the data set on dog (2 minutes ante adrenaline (30 γ/kg i.v.)) is “completely protected”. For the same compound, the duration of effect in the data set with dog (adrenaline arrhythmia) stood at 60 min.

In the case of `O=C(CN1CCCC1)N[C@@H]1[C@@H](c2ccccc2)[C@H]1c1ccccc1` [trans-trans, N-pyrrolidinoacetyl-2,3-trans,trans-diphenylcyclopropylamine hydrochloride], the LD50 at 72 h in “Acute toxicity LD50” amounted to 266 mg/kg. For the same compound, the median effective dose (ED50) in the data set on male albine Swiss mice [1] (setting [5]) stood at 87 mg/kg.

On to `Cc1ccccc1OCC(O)CO` (stereo not drawn) [Mephenesin, reference compound], for which the 50% effective dose (ED50) in the data set on male albine Swiss mice [2] (setting [4]) amounted to 180 mg/kg.

For `O=C1NC(=O)C(c2ccccc2)(c2ccccc2)N1` [Phenitoine Sodium salt, reference compound], the ED50 in the data set on male albine Swiss mice [1] (Phenitoine sodium salt (Table 1), route and time not stated, read-out: M.E.S. ED50) turned out to be 15 mg/kg; in the data set on male albine Swiss mice [2] (iv, Phenitoine sodium salt (Table 1), route and time not stated, cardiazol 38 mg/kg i.v., read-out: M.M.S. ED50), 7.1 mg/kg.

As to `CCCN(CCC)CC(=O)NC1[C@H](c2ccccc2)[C@H]1c1ccccc1` (relative stereo) [cis-trans, R1 = n-C3 H7, R2 = n-C3 H7, di-n-propylaminoacetyl-2,3-cis, trans-diphenylcyclopropylamine hydrochloride], the median effective dose (ED50) in the data set with male albine Swiss mice [1] (setting [5]) is greater than 100 mg/kg; in the data set with male albine Swiss mice [2] (setting [6]) it was 175 mg/kg.

Regarding `CCN(CC)CCOC(=O)c1ccc(N)cc1` [procaine], in the data set with rat (Rattus norvegicus), the minimal effective dose came out at 5 mg/kg.

With `CN1C(=O)OC(C)(C)C1=O` [Trimethadione, reference compound], in the data set on male albine Swiss mice [2] (setting [3]), the 50% effective dose (ED50) was 175 mg/kg.

Turning to `CCNCC(=O)NC1[C@H](c2ccccc2)[C@H]1c1ccccc1` (relative stereo) [cis-trans, R1 = H, R2 = C2 H5, N-ethylaminoacetyl-2,3-cis,trans-diphenylcyclopropylamine hydrochloride], the 50% lethal dose (LD50) at 72 h in the data set “Acute toxicity LD50” worked out at 85 mg/kg. The ED50 was 16.5 mg/kg with male albine Swiss mice [1] (setting [5]) and 13 mg/kg in the data set on male albine Swiss mice [2] (setting [6]).

Consider “1.1-dimethyl-3-phenyl-urea [Phenurone, reference compound]”, for which, in the data set with male albine Swiss mice [1] (Phenurone (Table 1), per os 60 minutes ante), the “M.E.S. ED50” value stood at 115 mg/kg. Moreover, the “M.M.S. ED50” value in the data set on male albine Swiss mice [2] (Phenurone (Table 1), per os 60 minutes ante, cardiazol 38 mg/kg i.v.) is reported as 50 mg/kg.

For the compound `O=C(CN1CCCC1)NC1[C@H](c2ccccc2)[C@H]1c1ccccc1` (relative stereo) [cis-trans, N-pyrrolidinoacetyl-2,3-cis,trans-diphenylcyclopropylamine], the LD50 at 72 h in the data set “Acute toxicity LD50” was found to be 67.5 mg/kg. In addition, the figures for the median effective dose (ED50) with male albine Swiss mice [1] (setting [5]) and in the data set with male albine Swiss mice [2] (setting [6]) were 9 mg/kg and 5.6 mg/kg, respectively.
